Patent publication US20190223483A1, “SENSORY MODIFIER COMPOUNDS” (CARGILL, INCORPORATED, priority 2017, published 2019)

Assays:
Type in all cases: in vivo
[1] = Roundtable assessment of bitterness (scale 0 to 6); set-up: key: 0 = none; 1 = trace/faint; 2 = slight; 3 = moderate; 4 = definite; 5 = strong; 6 = extreme
Description: (§1) For other sweetness attributes, the solutions were tested by a panel of at least four individuals that are highly-trained in tasting steviol glycoside solutions. The highly-trained panelists used a roundtable methodology to assess each sweetness attribute. To test each solution, the highly-trained panelists dispensed approximately 2 mL of each solution into their own mouths by transfer pipet, dispersed the solution by moving their tongues, and recorded a value for the particular sweetness attribute being tested. Between tasting solutions, the panelists were able to cleanse their palates with water. For each sweetness attribute, the panelist agreed on a descriptive scale with relative intensities assigned for each sweetness attribute and then recorded the values for each sweetness attribute against this. For example, this roundtable assessment of sweetness linger assigned a scale of 0 to 6 with a score of 0 indicating no sweetness linger and a score of 6 indicating extreme sweetness linger. Roundtable assessment of sweetness linger assigned a scale of 0 to 6 with a score of 0 indicating no sweetness linger and a score of 6 indicating extreme sweetness linger (0=none, 1=trace, 2=slight, 3=moderate, 4=definite, 5=strong, 6=extreme). Roundtable assessment of rounded assigned a scale of 0 to 3 with a score of 0 indicating spikey and a score of 3 indicating desirable rounded (0=none, 1=mostly spikey, some rounded, 2=mostly rounded, some spikey, 3=rounded). Roundtable assessment of mouthfeel assigned a scale of 0 to 2 with a score of 0 indicating water and a score of 2 indicating syrupy (0=water, 1=sucrosey, 2=syrupy). Roundtable assessment of bitterness assigned a scale of 0 to 6 with a score of 0 indicating no bitterness and a score of 6 indicating extreme sweetness linger (0=none, 1=trace, 2=slight, 3=moderate, 4=definite, 5=strong, 6=extreme). Roundtable assessment of off tastes assigned a scale of 0 to 6 with a score of 0 indicating no bitterness and a score of 6 indicating extreme off tastes (0=none, 1=trace, 2=slight, 3=moderate, 4=definite, 5=strong, 6=extreme).
(§2) A series of assays were carried out to characterize bitterness (0=none, 1=trace/faint, 2=slight, 3=moderate, 4=definite, 5=strong, 6=extreme) of steviol glycoside compositions with sensory modifier compound using the roundtable methodology described in Example 1. […] Solutions of steviol glycosides and sensory modifier compound were prepared at increasing ratios of sensory modifier to steviol glycoside by weight. The steviol glycosides were RebA (4 glycoside groups), RebD (5 glycoside groups), RebM (6 glycoside groups), and OPS1-5(7 glycoside groups) and the sensory modifier compound was monocaffeoylquinic and dicaffeoylquinic acids prepared from yerba mate. The concentration of steviol glycosides was 700 ppm in each solution. The solutions were tested for bitterness.

[2] = Roundtable assessment of botanical notes (scale 0 to 5); set-up: key: 0 = none; 1 = trace/faint; 2 = slight; 3 = moderate; 4 = definite; 5 = strong; 6 = extreme
Description: as §1
Roundtable assessment of botanical notes assigned a scale of 0 to 5 with a score of 0 indicating no botanical notes and a score of 5 indicating strong (0=none, 1=trace, 2=slight, 3=moderate, 4=definite, 5=strong).
A series of assays were carried out to characterize botanical notes of sensory modifier compound (0=none, 1=trace/faint, 2=slight, 3=moderate, 4=definite, 5=strong) in steviol glycoside compositions using the roundtable methodology described in Example 1. […] Solutions of steviol glycosides and sensory modifier compound were prepared at increasing ratios of sensory modifier to steviol glycoside by weight. […] The concentration of steviol glycosides was 700 ppm in each solution. The solutions were tested for botanical notes.

[3] = Roundtable assessment of mouthfeel (scale 0 to 2)
Description: as §1
as §2, with “a sweetness quality of mouthfeel (0=water, 1=sucrosey, 2=syrupy)” for “bitterness (0=none, 1=trace/faint, 2=slight, 3=moderate, 4=definite, 5=strong, 6=extreme)”, “The solutions were tested for bitterness.” left out

[4] = Overall sweetness quality preference; set-up: key: ! = preferred; !! = very preferred; !!! = most preferred
Description: A series of assays were carried out to determine overall sweetness quality preference for steviol glycoside with sensory modifier compound. Solutions of steviol glycosides and sensory modifier compound were prepared at varying concentrations of steviol glycoside and sensory modifier compound. The steviol glycoside was RebM and the sensory modifier compound was monocaffeoylquinic and dicaffeoylquinic acids prepared from yerba mate. The concentration of steviol glycosides was between 0 ppm and 1600 ppm. The concentration of sensory modifier compound was between 0 ppm and 1600 ppm. The solutions were tested for overall sweetness quality preference (!=preferred, !!=very preferred, and !!!=most preferred).

[5] = Roundtable assessment of off taste (scale 0 to 6); set-up: key: 0 = none; 1 = trace/faint; 2 = slight; 3 = moderate; 4 = definite; 5 = strong; 6 = extreme
[6] = Roundtable assessment of bitterness (scale 0 to 6); set-up: key: 0 = none; 1 = trace/faint; 2 = slight; 3 = moderate; 4 = definite; 5 = strong; 6 = extreme; remark: listed apart in the source
[7] = steviol glycoside 700 ppm + yerba mate mono/dicaffeoylquinic acids 630 ppm
[8] = steviol glycoside 700 ppm + yerba mate mono/dicaffeoylquinic acids 946 ppm
[9] = steviol glycoside 700 ppm + yerba mate mono/dicaffeoylquinic acids […]
[10] = steviol glycoside 700 ppm, sensory modifier 0 ppm
[11] = steviol glycoside 700 ppm + yerba mate mono/dicaffeoylquinic acids 270 ppm
[12] = steviol glycoside 700 ppm + yerba mate mono/dicaffeoylquinic acids 540 ppm
[13] = steviol glycoside 700 ppm + yerba mate mono/dicaffeoylquinic acids 810 ppm
[14] = RebM 700 ppm + cichoric acid (tartaric backbone) 772 ppm
[15] = RebM 700 ppm + cichoric acid (tartaric backbone) […]
[16] = RebM 700 ppm + rosmarinic acid 195 ppm
[17] = RebM 700 ppm + rosmarinic acid 391 ppm
[18] = steviol glycoside 700 ppm + yerba mate mono/dicaffeoylquinic acids 236 ppm
[19] = steviol glycoside 700 ppm + yerba mate mono/dicaffeoylquinic acids 472 ppm
[20] = steviol glycoside 700 ppm + yerba mate mono/dicaffeoylquinic acids 708 ppm
[21] = RebM 700 ppm + cichoric acid (tartaric backbone) 514 ppm
[22] = RebM 700 ppm + rosmarinic acid 586 ppm

C=C1C[C@@]23CC[C@H]4[C@@](C)(CCC[C@@]4(C)C(=O)O[C@@H]4O[C@H](CO)[C@@H](O)[C@H](O)[C@H]4O)[C@@H]2CC[C@]1(O[C@@H]1O[C@H](CO)[C@@H](O)[C@H](O[C@@H]2O[C@H](CO)[C@@H](O)[C@H](O)[C@H]2O)[C@H]1O[C@@H]1O[C@H](CO)[C@@H](O)[C@H](O)[C@H]1O)C3 [RebA, Rebaudioside A]
Not observed: Botanical notes [2, 9] | Botanical notes [2, 10]
1: Botanical notes [2, 7]
6: Bitterness [1, 10]
5: Bitterness [1, 9]
3: bitterness score ([1]; RebA 700 ppm, higher concentrations of sensory modifier) | Bitterness [1, 7] | Bitterness [1, 8] | Botanical notes [2, 8]
Not noted by panel: Mouthfeel [3, 7] | Mouthfeel [3, 8] | Mouthfeel [3, 9]

C=C1C[C@@]23CC[C@H]4[C@@](C)(CCC[C@@]4(C)C(=O)O[C@@H]4O[C@H](CO)[C@@H](O)[C@H](O)[C@H]4O[C@@H]4O[C@H](CO)[C@@H](O)[C@H](O)[C@H]4O)[C@@H]2CC[C@]1(O[C@@H]1O[C@H](CO)[C@@H](O)[C@H](O[C@@H]2O[C@H](CO)[C@@H](O)[C@H](O)[C@H]2O)[C@H]1O[C@@H]1O[C@H](CO)[C@@H](O)[C@H](O)[C@H]1O)C3 [RebD, Rebaudioside D]
no perceptible botanical notes: Botanical notes ([2]; Reb D 700 ppm, 0 ppm to about 500 ppm sensory modifier)
0: Bitterness [1, 11] | Bitterness [1, 12] | Bitterness [1, 13] | Bitterness [1, 10] | Botanical notes [2, 11] | Botanical notes [2, 12]
slight: Botanical notes ([2]; Reb D 700 ppm, about 800 ppm sensory modifier)
Not noted by panel: Mouthfeel [3, 13]
2: Botanical notes [2, 13]
Not observed: Botanical notes [2, 10]

C=C1C[C@@]23CC[C@H]4[C@@](C)(CCC[C@@]4(C)C(=O)O[C@@H]4O[C@H](CO)[C@@H](O)[C@H](O[C@@H]5O[C@H](CO)[C@@H](O)[C@H](O)[C@H]5O)[C@H]4O[C@@H]4O[C@H](CO)[C@@H](O)[C@H](O)[C@H]4O)[C@@H]2CC[C@]1(O[C@@H]1O[C@H](CO)[C@@H](O)[C@H](O[C@@H]2O[C@H](CO)[C@@H](O)[C@H](O)[C@H]2O)[C@H]1O[C@@H]1O[C@H](CO)[C@@H](O)[C@H](O)[C@H]1O)C3 [RebM, Rebaudioside M]
Not Observed: Botanical notes [2, 18]
!!!: Sweetness Quality preferred ([4]; quinic acid backbone modifier 500 ppm, RebM 700 ppm)
3: Botanical notes [2, 15] | Botanical notes [2, 17]
5: Sweetness linger ([1]; Table 16: RebM 700 ppm, sensory modifier 0 ppm) | Bitterness [1, 10] | Botanical notes [2, 14]
none: Bitterness ([1]; quinic, tartaric or 3-(3,4-dihydroxyphenyl)lactic acid backbone modifier above 200 ppm)
imperceptible: Botanical notes ([2]; RebM 700 ppm, quinic backbone modifier between 0 ppm and about 400 ppm)
!!: Sweetness Quality preferred ([4]; quinic acid backbone modifier 400 ppm, RebM 600 ppm) | Sweetness Quality preferred ([4]; quinic acid backbone modifier 400 ppm, RebM 700 ppm) | Sweetness Quality preferred ([4]; quinic acid backbone modifier 700 ppm, RebM 800 ppm)
2: Off taste [5, 17] | Botanical notes [2, 16] | Botanical notes [2, 22] | Botanical notes ([2]; steviol glycoside 700 ppm + yerba mate mono/dicaffeoylquinic acids 600 ppm) | Botanical notes ([2]; steviol glycoside 700 ppm + yerba mate mono/dicaffeoylquinic acids 700 ppm) | Botanical notes [2, 20] | Botanical notes ([2]; steviol glycoside 700 ppm + yerba mate mono/dicaffeoylquinic acids 800 ppm)
0: Bitterness [1, 14] | Bitterness [1, 15] | Bitterness [1, 16] | Bitterness [1, 17] | Sweetness linger ([1]; Table 16: RebM 700 ppm + yerba mate mono/dicaffeoylquinic acids 236 ppm) | Sweetness linger ([1]; Table 16: RebM 700 ppm + yerba mate mono/dicaffeoylquinic acids 300 ppm) | Sweetness linger ([1]; Table 16: RebM 700 ppm + yerba mate mono/dicaffeoylquinic acids 400 ppm) | Sweetness linger ([1]; Table 16: RebM 700 ppm + yerba mate mono/dicaffeoylquinic acids 472 ppm) | Sweetness linger ([1]; Table 16: RebM 700 ppm + yerba mate mono/dicaffeoylquinic acids 500 ppm) | Sweetness linger ([1]; Table 16: RebM 700 ppm + yerba mate mono/dicaffeoylquinic acids 600 ppm) | Sweetness linger ([1]; Table 16: RebM 700 ppm + yerba mate mono/dicaffeoylquinic acids 700 ppm) | Sweetness linger ([1]; Table 16: RebM 700 ppm + yerba mate mono/dicaffeoylquinic acids 708 ppm) | Sweetness linger ([1]; Table 16: RebM 700 ppm + yerba mate mono/dicaffeoylquinic acids 800 ppm) | Bitterness [1, 18] | Bitterness [1, 19] | Bitterness [1, 20] | Off taste [5, 21] | Off taste [5, 14] | Botanical notes ([2]; steviol glycoside 700 ppm + yerba mate mono/dicaffeoylquinic acids 300 ppm) | Botanical notes ([2]; steviol glycoside 700 ppm + yerba mate mono/dicaffeoylquinic acids 400 ppm) | Botanical notes ([2]; steviol glycoside 700 ppm + yerba mate mono/dicaffeoylquinic acids 500 ppm) | Botanical notes [2, 10] | Bitterness [6, 21] | Bitterness [6, 22]
1: Botanical notes [2, 19]
!: Sweetness Quality preferred ([4]; quinic acid backbone modifier 500 ppm, RebM 600 ppm) | Sweetness Quality preferred ([4]; quinic acid backbone modifier 600 ppm, RebM 400 ppm) | Sweetness Quality preferred ([4]; quinic acid backbone modifier 600 ppm, RebM 700 ppm) | Sweetness Quality preferred ([4]; quinic acid backbone modifier 800 ppm, RebM 400 ppm) | Sweetness Quality preferred ([4]; quinic acid backbone modifier 800 ppm, RebM 600 ppm) | Sweetness Quality preferred ([4]; quinic acid backbone modifier 800 ppm, RebM 700 ppm)
4: Botanical notes [2, 21]
not perceptible: Bitterness ([1]; RebM 700 ppm, about 200 ppm sensory modifier and above)
